Reference: patent publication US20230091042A1, “SMARCA2-VHL DEGRADERS” (AMGEN INC., priority 2020, published 2023)

Experiments:
SMARCA2 = target: T1, SMARCA2 (Homo sapiens, UniProt P51531); experiment: SMARCA2 MSD assay in A375 cells (SMARCA2 degradation, 2 h); format: cell-based; settings: 2 h compound treatment, N/C = no curve; for DC50: read-out: A375 SMARCA2 MSD IC50 IP
T1 construct: endogenous in cells; host or cells: A375 cells (ATCC CRL-1619)
Procedure: (§1) SMARCA2 and SMARCA4 MSD Assays in A375 Cells:
A375 cells (ATCC® CRL-1619™) were cultured in RPMI 1640 Medium (ThermoFisher Scientific 11875093) containing 10% fetal bovine serum (ThermoFisher Scientific 16000044) and 1× penicillin-streptomycin-glutamine (ThermoFisher Scientific 10378016). Sixteen hours prior to compound treatment, cells were seeded in 96-well cell culture plates (Corning 3904) at a density of 2.5×10^5 cells/well (90 uL/well) and incubated at 37° C., 5% CO2. A 1:3 compound dose-response titration was diluted in growth media (1:20), added to appropriate wells of a cell culture plate (1:10) and then assay plates were incubated at 37° C., 5% CO2. After 2 h of compound treatment, cells were lysed in MSD lysis buffer (MSD R60TX-2) containing protease (Roche 04693116001) and phosphatase (Roche 04906837001) inhibitors.
. Plates were washed with 300 μL per well MSD wash buffer (MSD R61TX-1) between each step. Following the last incubation, plates were washed with MSD wash buffer then 150 uL of MSD read buffer (MSD R92TC-2) was added to each well. Plates were immediately read on a MSD plate reader (MSD Sector Imager 6000) and data was analyzed using a 4-parameter logistic model to calculate IC50 values.

SMARCA4 = target: T2, SMARCA4 (Homo sapiens, UniProt P51532); experiment: SMARCA4 MSD assay in A375 cells (SMARCA4 degradation, 2 h); format: cell-based; settings: 2 h compound treatment, N/C = no curve
T2 construct: After 2 h of compound treatment, cells were lysed in MSD lysis buffer; endogenous in cells; host or cells: A375 cells (ATCC CRL-1619)
T2 sequence (P51532 whole entry): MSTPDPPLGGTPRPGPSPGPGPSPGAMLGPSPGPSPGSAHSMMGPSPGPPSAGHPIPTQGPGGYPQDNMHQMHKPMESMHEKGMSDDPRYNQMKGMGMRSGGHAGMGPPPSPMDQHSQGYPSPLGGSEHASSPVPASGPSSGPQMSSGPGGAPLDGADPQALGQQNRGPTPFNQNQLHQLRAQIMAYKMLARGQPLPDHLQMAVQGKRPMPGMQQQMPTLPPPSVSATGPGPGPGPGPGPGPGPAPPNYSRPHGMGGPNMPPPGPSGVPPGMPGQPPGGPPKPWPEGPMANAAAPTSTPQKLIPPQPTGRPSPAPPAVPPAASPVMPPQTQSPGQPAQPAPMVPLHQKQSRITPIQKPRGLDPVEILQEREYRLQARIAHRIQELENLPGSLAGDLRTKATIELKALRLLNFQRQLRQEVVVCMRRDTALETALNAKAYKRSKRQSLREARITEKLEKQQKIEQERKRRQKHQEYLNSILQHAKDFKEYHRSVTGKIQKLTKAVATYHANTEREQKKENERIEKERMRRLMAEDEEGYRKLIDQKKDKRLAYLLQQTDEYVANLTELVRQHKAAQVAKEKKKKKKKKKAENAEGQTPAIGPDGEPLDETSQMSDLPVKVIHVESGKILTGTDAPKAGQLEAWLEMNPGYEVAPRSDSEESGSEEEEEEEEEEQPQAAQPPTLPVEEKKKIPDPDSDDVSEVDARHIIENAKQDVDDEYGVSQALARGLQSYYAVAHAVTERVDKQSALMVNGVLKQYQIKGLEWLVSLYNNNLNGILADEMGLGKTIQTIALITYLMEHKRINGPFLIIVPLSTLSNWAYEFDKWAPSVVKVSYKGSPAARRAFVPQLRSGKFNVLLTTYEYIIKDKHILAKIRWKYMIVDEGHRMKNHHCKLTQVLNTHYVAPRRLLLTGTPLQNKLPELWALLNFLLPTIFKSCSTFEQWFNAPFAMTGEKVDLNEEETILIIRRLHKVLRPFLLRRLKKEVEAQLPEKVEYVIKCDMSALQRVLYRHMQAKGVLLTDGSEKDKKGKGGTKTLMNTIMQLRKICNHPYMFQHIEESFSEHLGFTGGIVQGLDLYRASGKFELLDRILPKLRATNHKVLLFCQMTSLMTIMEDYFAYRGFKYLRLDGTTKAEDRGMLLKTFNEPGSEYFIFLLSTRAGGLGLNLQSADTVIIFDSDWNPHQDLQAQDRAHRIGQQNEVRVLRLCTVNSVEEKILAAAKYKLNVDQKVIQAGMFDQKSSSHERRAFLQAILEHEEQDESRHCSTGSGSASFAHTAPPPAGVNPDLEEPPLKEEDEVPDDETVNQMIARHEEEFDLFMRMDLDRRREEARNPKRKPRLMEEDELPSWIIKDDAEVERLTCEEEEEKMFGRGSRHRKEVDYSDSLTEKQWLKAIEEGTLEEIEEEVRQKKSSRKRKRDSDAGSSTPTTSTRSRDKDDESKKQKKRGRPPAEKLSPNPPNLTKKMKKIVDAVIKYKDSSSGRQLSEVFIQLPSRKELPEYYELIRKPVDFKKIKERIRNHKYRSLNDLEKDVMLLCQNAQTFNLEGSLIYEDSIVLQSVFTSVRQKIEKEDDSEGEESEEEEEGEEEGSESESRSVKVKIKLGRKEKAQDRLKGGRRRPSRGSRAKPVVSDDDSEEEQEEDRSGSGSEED
Procedure: as §1
A 1:3 compound dose-response titration was diluted in growth media (1:20), added to appropriate wells of a cell culture plate (1:10) and then assay plates were incubated at 37° C., 5% CO2.
Plates were washed with 300 μL per well MSD wash buffer (MSD R61TX-1) between each step. Following the last incubation, plates were washed with MSD wash buffer then 150 uL of MSD read buffer (MSD R92TC-2) was added to each well. Plates were immediately read on a MSD plate reader (MSD Sector Imager 6000) and data was analyzed using a 4-parameter logistic model to calculate IC50 values.

T1 sequence (P51531 whole entry): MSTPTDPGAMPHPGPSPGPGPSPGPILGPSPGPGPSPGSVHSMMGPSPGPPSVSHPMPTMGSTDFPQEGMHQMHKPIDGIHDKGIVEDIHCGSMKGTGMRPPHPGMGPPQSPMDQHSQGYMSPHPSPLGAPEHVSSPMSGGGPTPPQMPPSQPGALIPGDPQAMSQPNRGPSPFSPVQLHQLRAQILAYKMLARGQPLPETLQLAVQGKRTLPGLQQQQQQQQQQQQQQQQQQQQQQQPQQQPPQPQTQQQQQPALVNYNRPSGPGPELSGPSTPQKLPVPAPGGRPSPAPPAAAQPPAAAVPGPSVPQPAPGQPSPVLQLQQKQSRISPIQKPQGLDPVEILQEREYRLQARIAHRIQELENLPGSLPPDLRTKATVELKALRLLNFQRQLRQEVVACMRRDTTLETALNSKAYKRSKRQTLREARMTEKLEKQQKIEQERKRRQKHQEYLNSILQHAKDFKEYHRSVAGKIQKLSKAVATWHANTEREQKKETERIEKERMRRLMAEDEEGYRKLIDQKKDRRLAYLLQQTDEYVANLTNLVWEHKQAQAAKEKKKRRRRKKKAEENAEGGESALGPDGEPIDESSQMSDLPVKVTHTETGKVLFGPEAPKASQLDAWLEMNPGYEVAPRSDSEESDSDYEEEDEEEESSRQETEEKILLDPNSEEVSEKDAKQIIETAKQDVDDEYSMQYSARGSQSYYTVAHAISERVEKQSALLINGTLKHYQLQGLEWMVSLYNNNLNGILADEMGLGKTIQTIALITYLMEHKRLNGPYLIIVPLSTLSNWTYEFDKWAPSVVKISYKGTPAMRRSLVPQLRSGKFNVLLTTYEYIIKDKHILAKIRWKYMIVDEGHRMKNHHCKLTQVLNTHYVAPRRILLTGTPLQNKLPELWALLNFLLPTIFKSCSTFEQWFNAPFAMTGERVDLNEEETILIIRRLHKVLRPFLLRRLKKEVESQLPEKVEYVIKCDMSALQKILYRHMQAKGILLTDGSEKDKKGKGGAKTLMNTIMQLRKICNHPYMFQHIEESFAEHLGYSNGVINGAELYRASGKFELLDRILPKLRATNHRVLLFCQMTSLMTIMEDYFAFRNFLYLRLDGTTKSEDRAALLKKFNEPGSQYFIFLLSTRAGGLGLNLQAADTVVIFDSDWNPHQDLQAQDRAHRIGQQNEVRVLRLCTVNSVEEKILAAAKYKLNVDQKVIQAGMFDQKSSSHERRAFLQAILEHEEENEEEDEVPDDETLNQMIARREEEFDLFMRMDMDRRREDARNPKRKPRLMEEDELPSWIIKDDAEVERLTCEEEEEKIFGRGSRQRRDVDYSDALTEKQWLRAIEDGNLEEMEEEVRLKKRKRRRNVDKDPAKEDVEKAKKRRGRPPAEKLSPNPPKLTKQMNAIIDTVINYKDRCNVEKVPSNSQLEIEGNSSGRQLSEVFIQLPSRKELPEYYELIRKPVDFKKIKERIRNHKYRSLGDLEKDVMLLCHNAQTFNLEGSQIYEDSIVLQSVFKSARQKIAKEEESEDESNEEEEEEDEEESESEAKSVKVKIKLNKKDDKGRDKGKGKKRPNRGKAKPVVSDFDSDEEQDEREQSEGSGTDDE

Row | SMILES | DC50 (SMARCA2) | A375 SMARCA4 MSD IC50 IP (SMARCA4) | further results
1 | Cc1ncsc1-c1ccc(CNC(=O)[C@@H]2C[C@@H](O)CN2C(=O)[C@@H](NC(=O)c2ccnc(N3CCN(c4cc(-c5ccccc5O)nnc4N)CC3)c2)C(C)(C)C)cc1 [Example 1, 2-(4-(3-Amino-6-(2-hydroxyphenyl)pyridazin-4-yl)piperazin-1-yl)-N—((S)-1-((2S,4R)-4-hydroxy-2-((4-(4-methylthiazol-5-yl)benzyl)carbamoyl)pyrrolidin-1-yl)-3,3-dimethyl-1-oxobutan-2-yl)isonicotinamide] | 110 nM | – | –
2 | Cc1ncsc1-c1ccc([C@H](C)NC(=O)[C@@H]2C[C@@H](O)CN2C(=O)[C@@H](NC(=O)c2cccc(N3CCN(c4cc(-c5ccccc5O)nnc4N)CC3)n2)C(C)(C)C)cc1 [Example 2, 6-(4-(3-Amino-6-(2-hydroxyphenyl)pyridazin-4-yl)piperazin-1-yl)-N—((S)-1-((2S,4R)-4-hydroxy-2-(((S)-1-(4-(4-methylthiazol-5-yl)phenyl)ethyl)carbamoyl)pyrrolidin-1-yl)-3,3-dimethyl-1-oxobutan-2-yl)picolinamide] | 120 nM | – | –
3 | Cc1ncsc1-c1ccc([C@H](C)NC(=O)[C@@H]2C[C@@H](O)CN2C(=O)[C@@H](NC(=O)c2ccnc(N3CCN(c4cc(-c5ccccc5O)nnc4N)CC3)c2)C(C)(C)C)cc1 [Example 3, 2-(4-(3-Amino-6-(2-hydroxyphenyl)pyridazin-4-yl)piperazin-1-yl)-N—((S)-1-((2S,4R)-4-hydroxy-2-(((S)-1-(4-(4-methylthiazol-5-yl)phenyl)ethyl)carbamoyl)pyrrolidin-1-yl)-3,3-dimethyl-1-oxobutan-2-yl)isonicotinamide] | 43 nM | – | –
4 | Cc1ncsc1-c1ccc([C@H](C)NC(=O)[C@@H]2C[C@@H](O)CN2C(=O)[C@@H](NC(=O)c2cccc(N3CCN(c4cc(-c5ccccc5O)nnc4N)CC3)c2)C(C)(C)C)cc1 [Example 4, (2S,4R)-1-((S)-2-(3-(4-(3-Amino-6-(2-hydroxyphenyl)pyridazin-4-yl)piperazin-1-yl)benzamido)-3,3-dimethylbutanoyl)-4-hydroxy-N—((S)-1-(4-(4-methylthiazol-5-yl)phenyl)ethyl)pyrrolidine-2-carboxamide] | 22 nM | – | –
5 | Cc1ncsc1-c1ccc([C@H](C)NC(=O)[C@@H]2C[C@@H](O)CN2C(=O)[C@@H](NC(=O)c2csc(N3CCN(c4cc(-c5ccccc5O)nnc4N)CC3)n2)C(C)(C)C)cc1 [Example 5, 2-(4-(3-Amino-6-(2-hydroxyphenyl)pyridazin-4-yl)piperazin-1-yl)-N—((S)-1-((2S,4R)-4-hydroxy-2-(((S)-1-(4-(4-methylthiazol-5-yl)phenyl)ethyl)carbamoyl)pyrrolidin-1-yl)-3,3-dimethyl-1-oxobutan-2-yl)thiazole-4-carboxamide] | 150 nM | – | –
6 | Cc1ncsc1-c1ccc([C@H](C)NC(=O)[C@@H]2C[C@@H](O)CN2C(=O)[C@@H](NC(=O)c2ccc(N3CCN(c4cc(-c5ccccc5O)nnc4N)CC3)s2)C(C)(C)C)cc1 [Example 6, (2S,4R)-1-((S)-2-(5-(4-(3-Amino-6-(2-hydroxyphenyl)pyridazin-4-yl)piperazin-1-yl)thiophene-2-carboxamido)-3,3-dimethylbutanoyl)-4-hydroxy-N—((S)-1-(4-(4-methylthiazol-5-yl)phenyl)ethyl)pyrrolidine-2-carboxamide] | 190 nM | – | –
7 | Cc1ncsc1-c1ccc([C@H](C)NC(=O)[C@@H]2C[C@@H](O)CN2C(=O)[C@@H](NC(=O)c2ccc(N3CCN(c4cc(-c5ccccc5O)nnc4N)CC3)nc2)C(C)(C)C)cc1 [Example 7, 6-(4-(3-Amino-6-(2-hydroxyphenyl)pyridazin-4-yl)piperazin-1-yl)-N—((S)-1-((2S,4R)-4-hydroxy-2-(((S)-1-(4-(4-methylthiazol-5-yl)phenyl)ethyl)carbamoyl)pyrrolidin-1-yl)-3,3-dimethyl-1-oxobutan-2-yl)nicotinamide] | – | N/C | A375 SMARCA2 MSD IC50 IP (SMARCA2): N/C
8 | Cc1ncsc1-c1ccc([C@H](C)NC(=O)[C@@H]2C[C@@H](O)CN2C(=O)[C@@H](NC(=O)Cc2ccnc(N3CCN(c4cc(-c5ccccc5O)nnc4N)CC3)c2)C(C)(C)C)cc1 [Example 8, (2S,4R)-1-((S)-2-(2-(2-(4-(3-Amino-6-(2-hydroxyphenyl)pyridazin-4-yl)piperazin-1-yl)pyridin-4-yl)acetamido)-3,3-dimethylbutanoyl)-4-hydroxy-N—((S)-1-(4-(4-methylthiazol-5-yl)phenyl)ethyl)pyrrolidine-2-carboxamide] | – | N/C | A375 SMARCA2 MSD IC50 IP (SMARCA2): N/C
9 | Cc1ncsc1-c1ccc([C@H](C)NC(=O)[C@@H]2C[C@@H](O)CN2C(=O)[C@@H](NC(=O)CCc2ccnc(N3CCN(c4cc(-c5ccccc5O)nnc4N)CC3)c2)C(C)(C)C)cc1 [Example 9, (2S,4R)-1-((S)-2-(3-(2-(4-(3-Amino-6-(2-hydroxyphenyl)pyridazin-4-yl)piperazin-1-yl)pyridin-4-yl)propanamido)-3,3-dimethylbutanoyl)-4-hydroxy-N—((S)-1-(4-(4-methylthiazol-5-yl)phenyl)ethyl)pyrrolidine-2-carboxamide] | – | N/C | A375 SMARCA2 MSD IC50 IP (SMARCA2): N/C
10 | Cc1ncsc1-c1ccc([C@H](C)NC(=O)[C@@H]2C[C@@H](O)CN2C(=O)[C@@H](NC(=O)c2cccc(N3CCN(c4nc(-c5ccccc5O)nnc4N)CC3)n2)C(C)(C)C)cc1 [Example 10, 6-(4-(6-Amino-3-(2-hydroxyphenyl)-1,2,4-triazin-5-yl)piperazin-1-yl)-N—((S)-1-((2S,4R)-4-hydroxy-2-(((S)-1-(4-(4-methylthiazol-5-yl)phenyl)ethyl)carbamoyl)pyrrolidin-1-yl)-3,3-dimethyl-1-oxobutan-2-yl)picolinamide] | 250 nM | – | –
11 | Cc1ncsc1-c1ccc([C@H](C)NC(=O)[C@@H]2C[C@@H](O)CN2C(=O)[C@@H](NC(=O)c2ccnc(N3CCN(c4cnnc(-c5ccccc5O)c4)CC3)c2)C(C)(C)C)cc1 [Example 11, N—((S)-1-((2S,4R)-4-Hydroxy-2-(((S)-1-(4-(4-methylthiazol-5-yl)phenyl)ethyl)carbamoyl)pyrrolidin-1-yl)-3,3-dimethyl-1-oxobutan-2-yl)-2-(4-(6-(2-hydroxyphenyl)pyridazin-4-yl)piperazin-1-yl)isonicotinamide] | 350 nM | N/C | –
12 | Cc1ncsc1-c1ccc([C@H](C)NC(=O)[C@@H]2C[C@@H](O)CN2C(=O)[C@@H](NC(=O)CN2CCN(c3cc(-c4ccccc4O)nnc3N)CC2)C(C)(C)C)cc1 [compound 1, (2S,4R)-1-((S)-2-(2-(4-(3-Amino-6-(2-hydroxyphenyl)pyridazin-4-yl)piperazin-1-yl)acetamido)-3,3-dimethylbutanoyl)-4-hydroxy-N—((S)-1-(4-(4-methylthiazol-5-yl)phenyl)ethyl)pyrrolidine-2-carboxamide, reference compound] | 250 nM | – | DC50 (SMARCA4; read-out: A375 SMARCA4 MSD IC50 IP): 840 nM
13 | Cc1ncsc1-c1ccc([C@H](C)NC(=O)[C@@H]2C[C@@H](O)CN2C(=O)[C@@H](NC(=O)CN2CCN(c3cc(-c4cccc(F)c4O)nnc3N)CC2)C(C)(C)C)cc1 [compound 2, (2S,4R)-1-((S)-2-(2-(4-(3-Amino-6-(3-fluoro-2-hydroxyphenyl)pyridazin-4-yl)piperazin-1-yl)acetamido)-3,3-dimethylbutanoyl)-4-hydroxy-N—((S)-1-(4-(4-methylthiazol-5-yl)phenyl)ethyl)pyrrolidine-2-carboxamide, reference compound] | 420 nM | – | –
